Laboratory results: paper PMC7351617 (Journal of neurochemistry, 2020)

Test system: rat adrenal chromaffin cells (native α3β4* / α3β2β4 nAChRs)

CC[C@H](C)[C@@H]1NC(=O)[C@@H]2CCCN2C(=O)[C@H](CO)NC(=O)[C@H](CCSC)NC(=O)[C@H](C)NC(=O)[C@H](CO)NC(=O)[C@@H]2CSSC[C@H](NC(=O)CN)C(=O)N[C@@H](CSSC[C@@H](C(N)=O)NC1=O)C(=O)N[C@@H](CO)C(=O)N[C@@H](Cc1c[nH]cn1)C(=O)N1CCC[C@H]1C(=O)N[C@@H](C(C)C)C(=O)N2 [TxID]
Hill slope: −1.1
inhibition of the ACh-evoked currents: ~ 97%
IC50 (36 h): 7 nM
ACh-evoked current amplitude in the presence of TxID (SD): −50 ± 24 pA
ACh-evoked current amplitude in the presence of TxID alone (SD): −45 ± 26 pA
ACh-evoked currents in the presence of TxID, % of controls (SD): 3 ± 1%
